Test results as given in patent US5674905A, “Bicyclooctane and bicycloheptane derivatives” (James Black Foundation Limited, priority 1992, dated 1997).

Columns and labels:
[1] = biological target: T1, CCKB receptor (Mus musculus, UniProt P56481); test: radioligand binding assay at the CCKB receptor in mouse cortical membranes ([125I]-CCK8S); details: 150 min at 21±3°; for Ki: read-out: CCKB pKi (converted)
T1 construct: The cortex was dissected, weighed and homogenised in 40 ml ice-cold buffer; from tissue; host or cells: cerebral cortex membranes of male CD1 mice (Charles River)
T1 sequence (P56481 1-453): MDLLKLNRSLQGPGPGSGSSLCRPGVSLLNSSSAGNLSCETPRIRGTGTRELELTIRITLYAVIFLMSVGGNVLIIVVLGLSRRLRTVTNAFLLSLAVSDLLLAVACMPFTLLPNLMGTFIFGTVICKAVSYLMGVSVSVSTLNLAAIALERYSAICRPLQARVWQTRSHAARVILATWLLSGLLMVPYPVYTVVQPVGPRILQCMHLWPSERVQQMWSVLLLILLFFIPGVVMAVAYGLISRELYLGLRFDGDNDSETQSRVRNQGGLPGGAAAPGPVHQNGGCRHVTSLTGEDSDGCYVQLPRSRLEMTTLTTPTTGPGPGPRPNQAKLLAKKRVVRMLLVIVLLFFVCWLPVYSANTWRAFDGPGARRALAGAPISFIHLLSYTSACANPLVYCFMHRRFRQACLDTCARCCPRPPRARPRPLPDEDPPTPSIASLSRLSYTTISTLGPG
Method in brief: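 Competition binding on cortical membranes from male CD1 mice in pH 7.2 HEPES buffer with bacitracin, using [125I]-CCK8S (200 pM) and test compound, 150 min at 21±3°. Non-specific binding defined with L-365,260 ([…]). Bound radioactivity collected by filtration and gamma-counted.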

[2] = biological target: T2, gastrin receptors (Rattus norvegicus, UniProt P30553); test: gastrin antagonist activity in an immature rat stomach assay (pentagastrin-stimulated acid secretion); details: isolated immature rat stomach, cumulative pentagastrin dose-response curves; for Kb: read-out: Gastrin pKB (converted)
T2 construct: from tissue; host or cells: isolated perfused whole stomach of immature rats (33-50 g, ca. 21 days old)
T2 sequence (P30553 1-452): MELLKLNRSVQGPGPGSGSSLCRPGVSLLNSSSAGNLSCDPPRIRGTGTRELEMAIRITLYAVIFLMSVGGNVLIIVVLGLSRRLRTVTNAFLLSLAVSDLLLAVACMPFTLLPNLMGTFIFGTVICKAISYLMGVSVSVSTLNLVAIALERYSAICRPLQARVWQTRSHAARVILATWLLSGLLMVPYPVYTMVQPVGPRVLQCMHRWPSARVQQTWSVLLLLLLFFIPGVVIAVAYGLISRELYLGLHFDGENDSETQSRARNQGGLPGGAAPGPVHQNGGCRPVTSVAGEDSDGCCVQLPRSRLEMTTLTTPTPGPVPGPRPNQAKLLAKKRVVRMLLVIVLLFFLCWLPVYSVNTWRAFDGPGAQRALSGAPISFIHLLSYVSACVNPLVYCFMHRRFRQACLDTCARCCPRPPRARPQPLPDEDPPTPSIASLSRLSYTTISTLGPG
Method: The compounds of the examples were also tested for gastrin antagonist activity in an immature rat stomach assay. The procedure was as follows:
The oesophagus of immature rats (33-50 g, ca. 21 days old) was ligated at the level of the cardiac sphincter and the duodenal sphincter was cannulated. The stomach was excised and flushed with ca. 1 ml of unbuffered physiological saline solution. The fundus was punctured and cannulated. A further 4-5 ml of unbuffered solution was flushed through the stomach to ensure the preparation was not leaking. The stomach was lowered into a jacketed organ bath containing 40 ml of buffered solution containing 3×10^-8 M 5-methyl-furmethide, maintained at 37° and gassed vigorously with 95% O2 /5% CO2. The stomach was continuously perfused at a rate of 1 ml min^-1 with unbuffered solution gassed with 100% O2 with the perfusate passing over an internally referenced pH-electrode fixed 12 cm above the stomach.
After 120 min of stabilisation the drugs were added directly to the serosal solution in the organ bath and after a further 60 min cumulative pentagastrin dose-response curves were started. Changes in acid secretion were monitored and the curves analysed according to Black et. al., Br. J. Pharmacol., 1985, 86, 581.

[3] = biological target: T3, CCKA (Cavia porcellus, UniProt Q63931); test: CCKA binding assay in guinea-pig pancreas membranes ([125I]-CCK8(S)); details: 150 minutes at 21±3°; for Ki: 0.375 μM PD134,308, read-out: CCKA pKi (converted); for CCKA pKi: 0.375 μM PD134,308
T3 construct: The pancreatata were removed from male guinea-pigs (200-300 g; Dunkin Hartley); from tissue; host or cells: pancreas membranes of male Dunkin Hartley guinea-pigs
T3 sequence (Q63931 1-430): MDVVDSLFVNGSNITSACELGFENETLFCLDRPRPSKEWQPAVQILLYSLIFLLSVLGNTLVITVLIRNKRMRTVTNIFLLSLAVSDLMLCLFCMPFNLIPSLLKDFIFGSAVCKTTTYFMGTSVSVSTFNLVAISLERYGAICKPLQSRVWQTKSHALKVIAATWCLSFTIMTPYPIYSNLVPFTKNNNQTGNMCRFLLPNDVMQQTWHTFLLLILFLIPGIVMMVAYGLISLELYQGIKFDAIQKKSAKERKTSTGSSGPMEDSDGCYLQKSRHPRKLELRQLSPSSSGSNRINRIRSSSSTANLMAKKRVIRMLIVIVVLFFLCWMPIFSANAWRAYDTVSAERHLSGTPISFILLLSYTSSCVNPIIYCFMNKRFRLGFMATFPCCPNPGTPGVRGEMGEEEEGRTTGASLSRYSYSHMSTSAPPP
Method: The compounds of the examples were also tested in a CCKA binding assay as follows:
The pancreatata were removed from male guinea-pigs (200-300 g; Dunkin Hartley) and placed in ice-cold HEPES buffer (pH 7.2 @ 21±3°). The pancreatata were homogenised in 40 ml ice-cold HEPES buffer using a polytron (Brinkmann, PT10, setting 10) 4×1 second. The homogenate was centrifuged at 39,800 g for 15 min at 4°. The supernatant was discarded and the pellet re-suspended using a Teflon-in-glass homogeniser in 20 volumes of fresh buffer and re-centrifuged as above. The final pellet was re-suspended using a Teflon-in-glass homogeniser to a tissue concentration of 1 mg.ml^-1 (original wet weight), and filtered through 500 μm pore-size Nytex mesh.
The membranes (400 μl; containing 0.375 μM PD134,308) are incubated for 150 minutes at 21±3° in a final volume of 0.5 ml with HEPES buffer containing [^125 I]-CCK8 (S)(50 μl; pM) and competing compound. Total and non-specific binding of [^125 I]-CCK8 (S) are defined using 50 μl of buffer and 50 μl of 100 nM L-364,718 respectively. The assay is terminated by rapid filtration through pre-soaked Whatman GF/B filters using a Brandell Cell Harvester. The filters were washed (3×3 ml) with ice-cold 50 mM Tris HCl (pH 7.4 at 4°) and bound radioactivity is determined by counting (1 min) in a gamma counter.

| Compound | Ki [1] [µM] | Kb [2] [µM] | Ki [3] [µM] | CCKB pKi [1] | CCKA pKi [3] | Gastrin pKB ([2]; 60 min) |
| --- | --- | --- | --- | --- | --- | --- |
| O=C(O)CNC(=O)[C@H]1CCCN1C(=O)C1C2c3ccccc3C(c3cc4ccccc4cc32)C1C(=O)NCC12CC3CC(CC(C3)C1)C2 (single isomer, unassigned) [Example 38, cis-7-(2R-carboxymethylaminocarbonyl-pyrrolidinocarbonyl)-8-(1-adamantylmethylaminocarbonyl)-2,3-benzo-5,6-(2,3-naphtho)bicyclo[2.2.2]octane] | 0.251 | 0.631 | 7.94 | – | – | – |
| C[C@@H](NC(=O)[C@H]1CCCN1C(=O)C1C2CCC(c3ccccc32)C1C(=O)NCC12CC3CC(CC(C3)C1)C2)C(=O)O (stereo partly drawn) [Example 41, cis-exo-7-(2R-(1R-carboxyethylaminocarbonyl)-pyrrolidinocarbonyl)-8-(1-adamantylmethylaminocarbonyl)-2,3-benzobicyclo[2.2.2]octane] | 5.01 | – | 7.94 | – | – | – |
| C[C@H](NC(=O)[C@@H]1CCCN1C(=O)C1C2CCC(c3ccccc32)C1C(=O)NCC12CC3CC(CC(C3)C1)C2)C(=O)O (stereo partly drawn) [Example 43, cis-exo-7-(2S-(1S-carboxyethylaminocarbonyl)-pyrrolidinocarbonyl)-8-(1-adamantylmethylaminocarbonyl)-2,3-benzobicyclo[2.2.2]octane] | 2 | – | 10 | – | – | – |
| (±)-endo-cis-8-(1-adamantylmethylaminocarbonyl)-2-(±)-benzyl-5,6-benzobicyclo[2.2.2]octane-7-carboxylic acid [Example 36] | – | – | – | 5.8 | 5.4 | – |
| endo-cis-7-(2-R-carboxy-pyrrolidinocarbonyl)-8-(1-adamantylmethylaminocarbonyl)-2-oxo-5,6-benzobicyclo[2.2.2]octane [Example 35] | – | – | – | 5.0 | 4.8 | – |
| exo-cis-7-(2-R-(3-indolyl)-1-carboxy-ethylaminocarbonyl)-8-(1-adamantylmethylaminocarbonyl)-5,6-benzobicyclo[2.2.2]oct-2-ene [Example 17] | – | – | – | 6.8 | 6.3 | 6.2 |

The remaining lines, values ahead:

| Ki [1] [µM] | Kb [2] [µM] | Ki [3] [µM] | CCKB pKi [1] | CCKA pKi [3] | Gastrin pKB ([2]; 60 min) | Compound |
| --- | --- | --- | --- | --- | --- | --- |
| 0.794 | 1 | 1 | – | – | – | O=C(NCC12CC3CC(CC(C3)C1)C2)C1C2C=CC(c3ccccc32)C1C(=O)N[C@H](Cc1c[nH]c2ccccc12)C(=O)O (single isomer, unassigned) [Example 18, exo-cis-7-(2-R-(3-indolyl)-1-carboxy-ethylaminocarbonyl)-8-(1-adamantylmethylaminocarbonyl)-5,6-benzobicyclo[2.2.2]oct-2-ene] |
| 0.158 | 0.501 | 3.16 | – | – | – | O=C(O)CNC(=O)[C@H]1CCCN1C(=O)C1C2c3ccccc3C(c3cc4ccccc4cc32)C1C(=O)NCC12CC3CC(CC(C3)C1)C2 (single isomer, unassigned) [Example 37, cis-7-(2R-carboxymethylaminocarbonyl-pyrrolidinocarbonyl)-8-(1-adamantylmethylaminocarbonyl)-2,3-benzo-5,6-(2,3-naphtho)bicyclo[2.2.2]octane] |
| 3.98 | – | 6.31 | – | – | – | O=C(O)CNC(=O)[C@H]1CCCN1C(=O)C1C2CCC(c3ccccc32)C1C(=O)NCC12CC3CC(CC(C3)C1)C2 (stereo partly drawn) [Example 42, cis-exo-7-(2R-carboxymethylaminocarbonyl-pyrrolidinocarbonyl)-8-(1-adamantylmethylaminocarbonyl)-2,3-benzobicyclo[2.2.2]octane] |
